From PubChem BioAssay (NCI)
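Exposure lasted 48 hours, with cells grown in 96-well plates and compounds tested at five concentrations. GI50 is the concentration that inhibits growth by half. TGI marks complete inhibition of growth.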

Columns and labels:
Test in all cases: DTP human tumour cell line panel, 48 h
[1] = test system: 786-0 renal
[2] = test system: A498 renal
[3] = test system: A549 NSCLC
[4] = test system: ACHN renal
[5] = test system: BT-549 breast
[6] = test system: CAKI-1 renal
[7] = test system: CCRF-CEM leukemia
[8] = test system: COLO 205 colon
[9] = test system: DU-145 prostate
[10] = test system: EKVX NSCLC
[11] = test system: HCC-2998 colon
[12] = test system: HCT-116 colon
[13] = test system: HCT-15 colon
[14] = test system: HL-60(TB) leukemia
[15] = test system: HOP-62 NSCLC
[16] = test system: HOP-92 NSCLC
[17] = test system: HS 578T breast
[18] = test system: HT29 colon
[19] = test system: IGROV1 ovarian
[20] = test system: K-562 leukemia
[21] = test system: KM12 colon
[22] = test system: LOX IMVI melanoma
[23] = test system: M14 melanoma
[24] = test system: MALME-3M melanoma
[25] = test system: MCF7 breast
[26] = test system: MDA-MB-231 breast
[27] = test system: MDA-MB-435
[28] = test system: MOLT-4 leukemia
[29] = test system: NCI-H226 lung
[30] = test system: NCI-H23 lung
[31] = test system: NCI-H460 lung
[32] = test system: NCI-H522 lung
[33] = test system: NCI/ADR-RES ovarian
[34] = test system: OVCAR-3 ovarian
[35] = test system: OVCAR-4 ovarian
[36] = test system: OVCAR-5 ovarian
[37] = test system: OVCAR-8 ovarian
[38] = test system: PC-3 prostate
[39] = test system: RPMI-8226 leukemia
[40] = test system: RXF 393 renal
[41] = test system: SF-268 CNS
[42] = test system: SF-295 CNS
[43] = test system: SF-539 CNS
[44] = test system: SK-MEL-28 melanoma
[45] = test system: SK-MEL-5 melanoma
[46] = test system: SK-OV-3 ovarian
[47] = test system: SN12C renal
[48] = test system: SNB-19 CNS
[49] = test system: SNB-75 CNS
[50] = test system: SR leukemia
[51] = test system: SW-620 colon
[52] = test system: T-47D breast
[53] = test system: TK-10 renal
[54] = test system: U251 CNS
[55] = test system: UACC-257 melanoma
[56] = test system: UACC-62 melanoma
[57] = test system: UO-31 renal
[58] = test system: SK-MEL-2 melanoma

O=C(N[C@@H](C[Se][Se]C[C@H](NC(=O)c1ccc(Br)cc1F)C(=O)O)C(=O)O)c1ccc(Br)cc1F
GI50 [1]: > 100 µM
TGI [1]: > 100 µM
GI50 [2]: > 100 µM
TGI [2]: > 100 µM
GI50 [3]: > 100 µM
TGI [3]: > 100 µM
GI50 [4]: > 100 µM
TGI [4]: > 100 µM
GI50 [5]: > 100 µM
TGI [5]: > 100 µM
GI50 [6]: > 100 µM
TGI [6]: > 100 µM
GI50 [7]: > 100 µM
TGI [7]: > 100 µM
GI50 [8]: > 100 µM
TGI [8]: > 100 µM
GI50 [9]: > 100 µM
TGI [9]: > 100 µM
GI50 [10]: > 100 µM
TGI [10]: > 100 µM
GI50 [11]: > 100 µM
TGI [11]: > 100 µM
GI50 [12]: > 100 µM
TGI [12]: > 100 µM
GI50 [13]: > 100 µM
TGI [13]: > 100 µM
GI50 [14]: > 100 µM
TGI [14]: > 100 µM
GI50 [15]: > 100 µM
TGI [15]: > 100 µM
GI50 [16]: > 100 µM
TGI [16]: > 100 µM
GI50 [17]: > 100 µM
TGI [17]: > 100 µM
GI50 [18]: > 100 µM
TGI [18]: > 100 µM
GI50 [19]: > 100 µM
TGI [19]: > 100 µM
GI50 [20]: > 100 µM
TGI [20]: > 100 µM
GI50 [21]: > 100 µM
TGI [21]: > 100 µM
GI50 [22]: > 100 µM
TGI [22]: > 100 µM
GI50 [23]: > 100 µM
TGI [23]: > 100 µM
GI50 [24]: > 100 µM
TGI [24]: > 100 µM
GI50 [25]: 60.8 µM
TGI [25]: > 100 µM
GI50 [26]: > 100 µM
TGI [26]: > 100 µM
GI50 [27]: > 100 µM
TGI [27]: > 100 µM
GI50 [28]: > 100 µM
TGI [28]: > 100 µM
GI50 [29]: > 100 µM
TGI [29]: > 100 µM
GI50 [30]: > 100 µM
TGI [30]: > 100 µM
GI50 [31]: > 100 µM
TGI [31]: > 100 µM
GI50 [32]: > 100 µM
TGI [32]: > 100 µM
GI50 [33]: > 100 µM
TGI [33]: > 100 µM
GI50 [34]: > 100 µM
TGI [34]: > 100 µM
GI50 [35]: > 100 µM
TGI [35]: > 100 µM
GI50 [36]: > 100 µM
TGI [36]: > 100 µM
GI50 [37]: > 100 µM
TGI [37]: > 100 µM
GI50 [38]: > 100 µM
TGI [38]: > 100 µM
GI50 [39]: > 100 µM
TGI [39]: > 100 µM
GI50 [40]: > 100 µM
TGI [40]: > 100 µM
GI50 [41]: > 100 µM
TGI [41]: > 100 µM
GI50 [42]: > 100 µM
TGI [42]: > 100 µM
GI50 [43]: > 100 µM
TGI [43]: > 100 µM
GI50 [44]: > 100 µM
TGI [44]: > 100 µM
GI50 [45]: > 100 µM
TGI [45]: > 100 µM
GI50 [46]: > 100 µM
TGI [46]: > 100 µM
GI50 [47]: > 100 µM
TGI [47]: > 100 µM
GI50 [48]: > 100 µM
TGI [48]: > 100 µM
GI50 [49]: > 100 µM
TGI [49]: > 100 µM
GI50 [50]: 95.4 µM
TGI [50]: > 100 µM
GI50 [51]: > 100 µM
TGI [51]: > 100 µM
GI50 [52]: > 100 µM
TGI [52]: > 100 µM
GI50 [53]: > 100 µM
TGI [53]: > 100 µM
GI50 [54]: > 100 µM
TGI [54]: > 100 µM
GI50 [55]: > 100 µM
TGI [55]: > 100 µM
GI50 [56]: > 100 µM
TGI [56]: > 100 µM
GI50 [57]: > 100 µM
TGI [57]: > 100 µM

CCCCn1c(-c2ccc(C(=O)O/N=C(\N)c3ccc4c(c3)OCO4)cc2)nc(-c2ccccc2)c1-c1ccccc1
GI50 [1]: 2.5 µM
TGI [1]: 6.15 µM
GI50 [2]: 0.306 µM
TGI [2]: 2.82 µM
GI50 [3]: 1.92 µM
TGI [3]: 5.22 µM
GI50 [4]: 1.35 µM
TGI [4]: 2.81 µM
GI50 [5]: 2.61 µM
TGI [5]: 7.84 µM
GI50 [6]: 1.35 µM
TGI [6]: 3.37 µM
GI50 [7]: 1.05 µM
TGI [7]: 3.4 µM
GI50 [8]: 2.69 µM
TGI [8]: 11 µM
GI50 [9]: 1.65 µM
TGI [9]: 3.21 µM
GI50 [10]: 2.07 µM
TGI [10]: 7.74 µM
GI50 [11]: 3.13 µM
TGI [11]: 22.5 µM
GI50 [12]: 1.7 µM
TGI [12]: 3.66 µM
GI50 [13]: 2.63 µM
TGI [13]: > 100 µM
GI50 [14]: 0.603 µM
TGI [14]: 2.75 µM
GI50 [15]: 1.82 µM
TGI [15]: 4.03 µM
GI50 [17]: 1.88 µM
TGI [17]: 5.09 µM
GI50 [18]: 3.33 µM
TGI [18]: > 100 µM
GI50 [19]: 0.465 µM
TGI [19]: 1.8 µM
GI50 [21]: 4.72 µM
TGI [21]: > 100 µM
GI50 [22]: 0.185 µM
TGI [22]: 0.379 µM
GI50 [23]: 2.85 µM
TGI [23]: 17.5 µM
GI50 [24]: 1.78 µM
TGI [24]: 4.3 µM
GI50 [25]: 2.38 µM
TGI [25]: 8.83 µM
GI50 [26]: 2.99 µM
TGI [26]: > 100 µM
GI50 [27]: 1.93 µM
TGI [27]: 3.9 µM
GI50 [29]: 3.93 µM
TGI [29]: > 100 µM
GI50 [30]: 2.23 µM
TGI [30]: > 100 µM
GI50 [31]: 2.29 µM
TGI [31]: 5.62 µM
GI50 [32]: 2.04 µM
TGI [32]: 4.89 µM
GI50 [33]: 1.52 µM
TGI [33]: 4.48 µM
GI50 [35]: 3.5 µM
TGI [35]: > 100 µM
GI50 [36]: 4.77 µM
TGI [36]: > 100 µM
GI50 [37]: 3.37 µM
TGI [37]: > 100 µM
GI50 [38]: 2.59 µM
TGI [38]: > 100 µM
GI50 [40]: 1.85 µM
TGI [40]: 4.93 µM
GI50 [41]: 1.97 µM
TGI [41]: 4.37 µM
GI50 [42]: 2.03 µM
TGI [42]: 4.38 µM
GI50 [43]: 3 µM
TGI [43]: 10.2 µM
GI50 [58]: 4.19 µM
TGI [58]: > 100 µM
GI50 [44]: 5.69 µM
TGI [44]: > 100 µM
GI50 [45]: 1.98 µM
TGI [45]: 4.54 µM
GI50 [46]: 7.13 µM
TGI [46]: > 100 µM
GI50 [47]: 1.8 µM
TGI [47]: 3.7 µM
GI50 [48]: 3.04 µM
TGI [48]: 43.6 µM
GI50 [49]: 1.53 µM
TGI [49]: 3.88 µM
GI50 [51]: 3.81 µM
TGI [51]: > 100 µM
GI50 [52]: 1.85 µM
TGI [52]: 4.95 µM
GI50 [54]: 2 µM
TGI [54]: 5.24 µM
GI50 [55]: 6.43 µM
TGI [55]: > 100 µM
GI50 [56]: 2.72 µM
TGI [56]: 8.93 µM
GI50 [57]: 0.229 µM
TGI [57]: 0.562 µM
